From PubChem BioAssay AID248 (DTP/NCI, 2004)
Values joined by “and” are separate entries in the source; they are usually repeats but may differ in a detail not shown here. Equal values may be shown once. Toxic doses and inconclusive results are not listed. Rule as the data show it: active = T/C of 150% or more; inactive = T/C below 125%.

System: L1210 leukemia ip in BDF1 mice, survival T/C
Assay: NCI In Vivo Anticancer Drug Screen. Data for tumor model L1210 Leukemia (intraperitoneal) in B6D2F1 (BDF1) mice
Conditions: endpoint: mean survival time, higher = longer survival
Summary of the method: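 Value reflects the ratio of survival in compound-treated mice to survival in vehicle-treated controls, with both groups carrying the same transplanted tumor.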

[1] = dose: 100.0 mg/kg/injection, schedule: Q01DX009 (ip), vehicle: saline with Tween-80
[2] = dose: 100.0 mg/kg/injection, schedule: Q04DX002 (ip), vehicle: saline with Tween-80
[3] = dose: 200.0 mg/kg/injection, schedule: Q01DX009 (ip), vehicle: saline with Tween-80
[4] = dose: 200.0 mg/kg/injection, schedule: Q04DX002 (ip), vehicle: saline with Tween-80
[5] = dose: 400.0 mg/kg/injection, schedule: Q01DX009 (ip), vehicle: saline with Tween-80
[6] = dose: 400.0 mg/kg/injection, schedule: Q04DX002 (ip), vehicle: saline with Tween-80
[7] = dose: 100.0 mg/kg/injection, schedule: Q04DX003 (ip), vehicle: Klucel (hydroxypropylcellulose) (HPC)
[8] = dose: 200.0 mg/kg/injection, schedule: Q04DX003 (ip), vehicle: Klucel (hydroxypropylcellulose) (HPC)
[9] = dose: 400.0 mg/kg/injection, schedule: Q04DX003 (ip), vehicle: Klucel (hydroxypropylcellulose) (HPC)
[10] = dose: 100.0 mg/kg/injection, schedule: Q04DX003 (ip), vehicle: saline
[11] = dose: 200.0 mg/kg/injection, schedule: Q04DX003 (ip), vehicle: saline
[12] = dose: 100.0 mg/kg/injection, schedule: Q01DX009 (ip), vehicle: Klucel (hydroxypropylcellulose) (HPC)
[13] = dose: 200.0 mg/kg/injection, schedule: Q01DX009 (ip), vehicle: Klucel (hydroxypropylcellulose) (HPC)
[14] = dose: 100.0 mg/kg/injection, schedule: Q01DX001 (ip), vehicle: Klucel (hydroxypropylcellulose) (HPC)
[15] = dose: 200.0 mg/kg/injection, schedule: Q01DX001 (ip), vehicle: Klucel (hydroxypropylcellulose) (HPC)

Measured: T/C

CN1C(=O)CC(C(=O)CBr)(c2ccccc2)C1=O (stereo unspecified)
inactive: dose: 25.0 mg/kg/injection, schedule: Q04DX003 (ip), vehicle: saline with Tween-80 109 % of control | dose: 50.0 mg/kg/injection, schedule: Q04DX003 (ip), vehicle: saline with Tween-80 101 % of control

CN(C(=O)c1ccc([N+](=O)[O-])cc1)C(c1ccco1)P(=O)(c1ccccc1)c1ccccc1 (stereo unspecified)
inactive: [1] 90 % of control | [2] 96 % of control | [3] 87 % of control | [4] 86 % of control | [5] 90 % of control | [6] 93 % of control

Cn1ncc(C(=O)O)c1N
inactive: dose: 25.0 mg/kg/injection, schedule: Q01DX009 (ip), vehicle: saline with Tween-80 102 % of control | dose: 50.0 mg/kg/injection, schedule: Q01DX009 (ip), vehicle: saline with Tween-80 111 % of control | [1] 100 % of control | [3] 94 % of control | [5] 96 % of control

O=C1NC(=O)C2CC(Br)C(Br)CC12 (stereo unspecified)
inactive: dose: 2.5 mg/kg/injection, schedule: Q01DX009 (ip), vehicle: Klucel (hydroxypropylcellulose) (HPC) 100 % of control | dose: 2.5 mg/kg/injection, schedule: Q04DX003 (ip), vehicle: Klucel (hydroxypropylcellulose) (HPC) 98 % of control | dose: 5.0 mg/kg/injection, schedule: Q01DX009 (ip), vehicle: Klucel (hydroxypropylcellulose) (HPC) 100 % of control | dose: 5.0 mg/kg/injection, schedule: Q04DX003 (ip), vehicle: Klucel (hydroxypropylcellulose) (HPC) 100 % of control | dose: 10.0 mg/kg/injection, schedule: Q01DX009 (ip), vehicle: Klucel (hydroxypropylcellulose) (HPC) 100 % of control | dose: 10.0 mg/kg/injection, schedule: Q04DX003 (ip), vehicle: Klucel (hydroxypropylcellulose) (HPC) 98 % of control and 100 % of control

O=C(Nc1ccc(I)cc1)c1cc([N+](=O)[O-])ccc1O
inactive: dose: 17.0 mg/kg/injection, schedule: Q02DX010 (ip), vehicle: carboxymethylcellulose (CMC) 99 % of control | dose: 34.0 mg/kg/injection, schedule: Q02DX010 (ip), vehicle: carboxymethylcellulose (CMC) 103 % of control | dose: 68.0 mg/kg/injection, schedule: Q02DX010 (ip), vehicle: carboxymethylcellulose (CMC) 97 % of control | dose: 136.0 mg/kg/injection, schedule: Q02DX010 (ip), vehicle: carboxymethylcellulose (CMC) 95 % of control | dose: 272.0 mg/kg/injection, schedule: Q02DX010 (ip), vehicle: carboxymethylcellulose (CMC) 98 % of control

O=C(Nc1ccc([N+](=O)[O-])cc1Cl)Oc1ccc(F)cc1
inactive: [7] 95 % of control | [8] 96 % of control | [9] 100 % of control

C1=C/C2OC2CCCC/1 (stereo unspecified)
inactive: dose: 50.0 mg/kg/injection, schedule: Q01DX009 (ip), vehicle: saline 96 % of control | dose: 100.0 mg/kg/injection, schedule: Q01DX009 (ip), vehicle: saline 97 % of control | [10] 102 % of control | dose: 200.0 mg/kg/injection, schedule: Q01DX009 (ip), vehicle: saline 102 % of control | [11] 87 % of control | dose: 400.0 mg/kg/injection, schedule: Q04DX003 (ip), vehicle: saline 93 % of control

CC(C)=CCOc1ccc2c(c1)OCO2
inactive: [2] 91 % of control | [4] 103 % of control

N#CC1(c2ccccc2)CCCCC1
inactive: dose: 100.0 mg/kg/injection, schedule: Q01DX001 (ip), vehicle: carboxymethylcellulose (CMC) 96 % of control | dose: 200.0 mg/kg/injection, schedule: Q01DX001 (ip), vehicle: carboxymethylcellulose (CMC) 89 % of control | dose: 400.0 mg/kg/injection, schedule: Q01DX001 (ip), vehicle: carboxymethylcellulose (CMC) 94 % of control

CCCCC1CCCCC1
inactive: [1] 106 % of control | [3] 98 % of control | [5] 96 % of control

C#CCCCCC#C
inactive: dose: 50.0 mg/kg/injection, schedule: Q01DX009 (ip), vehicle: Klucel (hydroxypropylcellulose) (HPC) 98 % of control | [12] 106 % of control | [7] 98 % of control | [13] 97 % of control | [8] 91 % of control | [9] 86 % of control

O=S(=O)(/N=c1/ccc(NS(=O)(=O)c2ccccc2)cn1O)c1ccccc1
inactive: dose: 50.0 mg/kg/injection, schedule: Q01DX001 (ip), vehicle: Klucel (hydroxypropylcellulose) (HPC) 96 % of control | [14] 102 % of control | [15] 98 % of control

O=c1[nH]nc(-c2ccc(Cl)cc2Cl)s1
inactive: [7] 95 % of control | [8] 101 % of control | [9] 112 % of control

COc1cc(/C=C/C(=O)O)cc(Br)c1O
inactive: [7] 104 % of control | [8] 101 % of control | [9] 103 % of control

O=C(Nc1cccc(C2=NCCN2)c1)c1ccc2cc(C(=O)Nc3cccc(C4=NCCN4)c3)ccc2c1
inactive: dose: 7.5 mg/kg/injection, schedule: Q01DX Z (ip), vehicle: carboxymethylcellulose (CMC) 106 % of control | dose: 15.0 mg/kg/injection, schedule: Q01DX Z (ip), vehicle: carboxymethylcellulose (CMC) 104 % of control and 115 % of control | dose: 30.0 mg/kg/injection, schedule: Q01DX Z (ip), vehicle: carboxymethylcellulose (CMC) 104 % of control and 123 % of control | dose: 60.0 mg/kg/injection, schedule: Q01DX Z (ip), vehicle: carboxymethylcellulose (CMC) 119 % of control | dose: 120.0 mg/kg/injection, schedule: Q01DX Z (ip), vehicle: carboxymethylcellulose (CMC) 120 % of control

C1CSCSC1
inactive: dose: 12.5 mg/kg/injection, schedule: Q01DX009 (ip), vehicle: Klucel (hydroxypropylcellulose) (HPC) 100 % of control | dose: 12.5 mg/kg/injection, schedule: Q04DX003 (ip), vehicle: Klucel (hydroxypropylcellulose) (HPC) 101 % of control | dose: 25.0 mg/kg/injection, schedule: Q01DX009 (ip), vehicle: Klucel (hydroxypropylcellulose) (HPC) 95 % of control | dose: 25.0 mg/kg/injection, schedule: Q04DX003 (ip), vehicle: Klucel (hydroxypropylcellulose) (HPC) 97 % of control | dose: 50.0 mg/kg/injection, schedule: Q04DX003 (ip), vehicle: Klucel (hydroxypropylcellulose) (HPC) 100 % of control

CC1CC(C)(C)N=C(C(C)CC(C)(C)C)O1 (stereo unspecified)
inactive: [10] 105 % of control | [11] 94 % of control

O=C1CCCCC/C1=C1\C(=O)Nc2ccc(Br)cc21
inactive: [1] 107 % of control | [2] 105 % of control | [3] 100 % of control | [4] 105 % of control | [5] 93 % of control | [6] 97 % of control

O=C(CC(=O)c1ccccc1)CC(=O)c1ccccc1
inactive: [14] 97 % of control | [15] 100 % of control | dose: 400.0 mg/kg/injection, schedule: Q01DX001 (ip), vehicle: Klucel (hydroxypropylcellulose) (HPC) 94 % of control

N#CCCN(C(=O)Nc1cccc(Cl)c1)C1CCCCC1
inactive: [12] 103 % of control | [13] 90 % of control | dose: 400.0 mg/kg/injection, schedule: Q01DX009 (ip), vehicle: Klucel (hydroxypropylcellulose) (HPC) 97 % of control

Nc1cccc(CC(=O)c2ccccc2)n1
inactive: dose: 5.0 mg/kg/injection, schedule: Q01DX001 (ip), vehicle: saline 97 % of control | dose: 10.0 mg/kg/injection, schedule: Q01DX001 (ip), vehicle: saline 106 % of control | dose: 20.0 mg/kg/injection, schedule: Q01DX001 (ip), vehicle: saline 100 % of control | dose: 40.0 mg/kg/injection, schedule: Q01DX001 (ip), vehicle: saline 97 % of control | dose: 80.0 mg/kg/injection, schedule: Q01DX001 (ip), vehicle: saline 100 % of control | dose: 200.0 mg/kg/injection, schedule: Q01DX001 (ip), vehicle: saline 106 % of control
